Ring closure, yield of all isomers data for six compounds are collected here from patent publication EP1226160B1.

The conditions of the series: amide bond, DMF.
Where [1] appears, read: PyBOP/HOBt/NMM, 16.0 h, 15 steps.
[2] abbreviates: PyBOP/HOBt/NMM, 16.0 h, 17 steps.

Each structure is given as a SMILES string. Like-named read-outs stand apart in the source and are kept apart here.

Take `C[C@@H]1NC(=O)CNC(=O)[C@@H]2C[C@@H](O)CN2C(=O)[C@@H]2CCCN2C(=O)[C@H](Cc2ccc(O)cc2)NC(=O)[C@H](CC(N)=O)NC1=O` [Cyclo(Tyr-Pro-4Hyp-Gly-Ala-Asn)]: the ring closure, yield of all isomers under setting [1] is 4.4%.
Compound `C[C@@H]1NC(=O)CNC(=O)[C@@H]2C[C@@H](O)CN2C(=O)[C@@H]2CCCN2C(=O)[C@H](Cc2ccc(O)cc2)NC(=O)[C@H](CC(N)=O)NC(=O)CNC1=O` [Cyclo(Tyr-Pro-4Hyp-Gly-Ala-Gly-Asn)] showed a ring closure, yield of all isomers under setting [2] of 7%.
Same read-out and setting: for `C[C@@H]1NC(=O)CNC(=O)[C@H](CC(N)=O)NC(=O)[C@H](Cc2ccc(O)cc2)NC(=O)[C@@H]2CCCN2C(=O)[C@@H]2C[C@@H](O)CN2C(=O)CNC1=O` [cyclo(-Gly-Ala-Gly-Hyp-Pro-Tyr-Asn-)] the value was 6.2%; for `C[C@@H]1NC(=O)CNC(=O)[C@H](CCC(N)=O)NC(=O)[C@H](Cc2ccc(O)cc2)NC(=O)[C@@H]2CCCN2C(=O)[C@@H]2C[C@@H](O)CN2C(=O)CNC1=O` [cyclo(-Gly-Ala-Gly-Hyp-Pro-Tyr-Gln-)], 6.6%.
Under setting [1], `C[C@@H]1NC(=O)[C@H](CO)NC(=O)[C@H](C)NC(=O)[C@H](Cc2ccc(O)cc2)NC(=O)[C@H](CC(N)=O)NC(=O)CNC1=O` [cyclo(-Tyr-Ala-Ser-Ala-Gly-Asn-)] gave a ring closure, yield of all isomers of 4.3%.
In turn, `NC(=O)C[C@@H]1NC(=O)CNC(=O)[C@H](Cc2ccc(O)cc2)NC(=O)[C@H](CC(N)=O)NC(=O)CNC(=O)[C@H](Cc2ccc(O)cc2)NC1=O` [cyclo(-Tyr-Gly-Asn-Tyr-Gly-Asn-)] gave a ring closure, yield of all isomers (PyBOP, 16 steps) of 14%.
